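1) Cells in 96-well plates. 2) Compound, 48 h, 5 concentrations. 3) Linear interpolation between surrounding doses. 4) Unreached endpoint = highest concentration. GI50 marks 50% less growth. TGI denotes the concentration required for complete inhibition of growth.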
Columns and labels:
Assay in all cases: DTP human tumour cell line panel, 48 h
[1] = tested on: HL-60(TB) leukemia
[2] = tested on: HT29 colon
[3] = tested on: SW-620 colon
[4] = tested on: SNB-78 CNS
[5] = tested on: SN12C renal
[6] = tested on: SK-MEL-2 melanoma
[7] = tested on: IGROV1 ovarian
[8] = tested on: OVCAR-4 ovarian
[9] = tested on: NCI-H460 lung
[10] = tested on: HOP-62 NSCLC

## CCCCCCCCCCCCCCCCNCCCN(C)CCCN
[1]
  TGI: 42.4 µM
[2]
  TGI: 35.8 µM
[3]
  TGI: 36.3 µM
[4]
  TGI: 34.4 µM
[5]
  TGI: 41 µM
[6]
  TGI: 41.8 µM
[7]
  TGI: 43.1 µM
[8]
  TGI: 32.9 µM
[9]
  TGI: 34.1 µM

## C#CC[N+](C)(CC#C)CC#C
[1]
  TGI: > 100 µM
[2]
  TGI: > 100 µM
[3]
  TGI: > 100 µM
[4]
  TGI: > 100 µM
[5]
  TGI: > 100 µM
[6]
  TGI: > 100 µM
[7]
  TGI: > 100 µM
[8]
  TGI: > 100 µM
[10]
  TGI: > 100 µM
[9]
  TGI: > 100 µM

## COc1cccc(/C=N/NC(=S)NC2CC3CCC2C3)c1O (centres undefined)
[1]
  GI50: 16.6 µM
  TGI: 60.3 µM
[2]
  GI50: 30.1 µM
  TGI: 91.4 µM
[3]
  GI50: 13.7 µM
  TGI: > 100 µM
[5]
  GI50: 5.09 µM
  TGI: 22.9 µM
[6]
  GI50: 18.2 µM
  TGI: 34.9 µM
[7]
  GI50: 10 µM
  TGI: 35.1 µM
[8]
  GI50: 1.82 µM
  TGI: 4.46 µM
[10]
  GI50: 3.01 µM
  TGI: 10 µM
[9]
  GI50: 2.47 µM
  TGI: 8.43 µM

## Oc1ccc(-c2nc3ccc4[nH]ncc4c3c3c2CCCC3)c(F)c1
[1]
  GI50: 2.93 µM
  TGI: 8.82 µM
[2]
  GI50: 2.7 µM
  TGI: 11.2 µM
[3]
  GI50: 1.41 µM
  TGI: 8.29 µM
[5]
  GI50: 2.99 µM
  TGI: 12.5 µM
[6]
  GI50: 1.01 µM
  TGI: 2.93 µM
[7]
  GI50: 2.8 µM
  TGI: 12.4 µM
[8]
  GI50: 3.38 µM
  TGI: 16.1 µM
[10]
  GI50: 1.5 µM
  TGI: 5.47 µM
[9]
  GI50: 2.18 µM
  TGI: 11.1 µM

## COc1cc(-c2cc(-c3ccc(Nc4ccnc5cc(Cl)ccc45)cc3)nc(N3CCOCC3)n2)cc(OC)c1OC
[1]
  GI50: 5.99 µM
  TGI: 82.1 µM
[2]
  GI50: 1.97 µM
  TGI: 4.61 µM
[3]
  GI50: 1.28 µM
  TGI: 3.45 µM
[5]
  GI50: 1.93 µM
  TGI: 3.81 µM
[6]
  GI50: 11.8 µM
  TGI: 48 µM
[7]
  GI50: 1.91 µM
  TGI: 4.03 µM
[8]
  GI50: 1.89 µM
  TGI: 4.3 µM
[10]
  GI50: 1.95 µM
  TGI: 4.09 µM
[9]
  GI50: 1.87 µM
  TGI: 3.89 µM

## O=C1C2=C(c3ccccc31)C(c1ccccc1)N1C(=O)CSC1=N2 (centres undefined)
[1]
  TGI: 95.8 µM
[2]
  TGI: 96.9 µM
[3]
  TGI: > 100 µM
[5]
  TGI: > 94.9 µM
[6]
  TGI: > 100 µM
[7]
  TGI: > 100 µM
[8]
  TGI: > 100 µM
[10]
  TGI: > 100 µM
[9]
  TGI: > 100 µM

## COC(=O)/C(=N/Nc1cccc(Cl)c1)C(C(=O)C(=O)Nc1cccc(Cl)c1C)c1nc2ccccc2nc1C (centres undefined)
[1]
  TGI: > 100 µM
[2]
  TGI: > 100 µM
[3]
  TGI: > 100 µM
[5]
  TGI: > 100 µM
[6]
  TGI: > 100 µM
[7]
  TGI: > 100 µM
[8]
  TGI: > 100 µM
[10]
  TGI: > 100 µM
[9]
  TGI: > 100 µM

## CC1=CC(=O)C(C(C)C)=CC1=Nc1cc(Br)c(O)c(Br)c1
[1]
  GI50: 3.48 µM
  TGI: 8.5 µM
[2]
  GI50: 4.05 µM
  TGI: 16 µM
[3]
  GI50: 4.18 µM
  TGI: 15.4 µM
[5]
  GI50: 5.56 µM
  TGI: 18.3 µM
[6]
  GI50: 8.94 µM
  TGI: 30.1 µM
[7]
  GI50: 4.68 µM
  TGI: 20.2 µM
[8]
  GI50: 6.29 µM
  TGI: 19.5 µM
[10]
  GI50: 6.29 µM
  TGI: 45.2 µM
[9]
  GI50: 3.53 µM
  TGI: 14.4 µM

Source: PubChem BioAssay (NCI)
